Assay results taken from patent publication US20110190127A1, “NOVEL HERBICIDES” (SYNGENTA CROP PROTECTION, INC., priority 2008, published 2011).

Key:
Type in all cases: in vivo
[1] = test system: Echinochloa crus-galli (ECHCG); experiment: Post-emergence herbicidal activity, glasshouse pot test; settings: Rate 500 g/ha; sprayed after 10 days cultivation, evaluated 15 days later; 100=total damage to plant, 0=no damage to plant
Experimental: (§1) Monocotyledonous and dicotyledonous test plants were sown in standard soil in pots. After cultivation for one day (pre-emergence) or after 10 days cultivation (post-emergence) under controlled conditions in a glasshouse, the plants were sprayed with an aqueous spray solution derived from the formulation of the technical active ingredient in 0.6 ml acetone and 45 ml formulation solution containing 10.6% Emulsogen EL (Registry number 61791-12-6), 42.2% N-methyl pyrrolidone, 42.2% dipropylene glycol monomethyl ether (Registry number 34590-94-8) and 0.2% X-77 (Registry number 11097-66-8). The test plants were then grown in a greenhouse under optimum conditions until, 15 days later for post-emergence and 20 days for pre-emergence, the test was evaluated (100=total damage to plant; 0=no damage to plant). Test Plants: Alopecurus myosuroides (ALOMY), Avena fatua (AVEFA), Lolium perenne (LOLPE), Setaria faberi (SETFA), Digitaria sanguinalis (DIGSA), Echinochloa crus-galli (ECHCG)

[2] = test system: Alopecurus myosuroides (ALOMY); experiment: as above; settings: Rate 500 g/ha; sprayed after 10 days cultivation, evaluated 15 days later; 100=total damage to plant, 0=no damage to plant
Experimental: as §1

Lolium perenne (LOLPE) [3] = experiment: as above; settings: Rate 500 g/ha; sprayed after 10 days cultivation, evaluated 15 days later; 100=total damage to plant, 0=no damage to plant
Experimental: as §1

[4] = test system: Digitaria sanguinalis (DIGSA); experiment: as above; settings: Rate 500 g/ha; sprayed after 10 days cultivation, evaluated 15 days later; 100=total damage to plant, 0=no damage to plant
Experimental: as §1

Avena fatua (AVEFA) [5] = experiment: as above; settings: Rate 500 g/ha; sprayed after 10 days cultivation, evaluated 15 days later; 100=total damage to plant, 0=no damage to plant
Experimental: as §1

Setaria faberi (SETFA) [6] = experiment: as above; settings: Rate 500 g/ha; sprayed after 10 days cultivation, evaluated 15 days later; 100=total damage to plant, 0=no damage to plant
Experimental: as §1

[7] = test system: Echinochloa crus-galli (ECHCG); experiment: Pre-emergence herbicidal activity, glasshouse pot test; settings: Rate 500 g/ha; sprayed after one day cultivation, evaluated 20 days later; 100=total damage to plant, 0=no damage to plant
Experimental: as §1

[8] = test system: Alopecurus myosuroides (ALOMY); experiment: as above; settings: Rate 500 g/ha; sprayed after one day cultivation, evaluated 20 days later; 100=total damage to plant, 0=no damage to plant
Experimental: as §1

Lolium perenne (LOLPE) [9] = experiment: as above; settings: Rate 500 g/ha; sprayed after one day cultivation, evaluated 20 days later; 100=total damage to plant, 0=no damage to plant
Experimental: as §1

[10] = test system: Digitaria sanguinalis (DIGSA); experiment: as above; settings: Rate 500 g/ha; sprayed after one day cultivation, evaluated 20 days later; 100=total damage to plant, 0=no damage to plant
Experimental: as §1

Avena fatua (AVEFA) [11] = experiment: as above; settings: Rate 500 g/ha; sprayed after one day cultivation, evaluated 20 days later; 100=total damage to plant, 0=no damage to plant
Experimental: as §1

Setaria faberi (SETFA) [12] = experiment: as above; settings: Rate 500 g/ha; sprayed after one day cultivation, evaluated 20 days later; 100=total damage to plant, 0=no damage to plant
Experimental: as §1

Compound | Post-Emergence Activity ECHCG [1] | Post-Emergence Activity ALOMY [2] | Post-Emergence Activity LOLPE (Lolium perenne (LOLPE) [3]) | Post-Emergence Activity DIGSA [4] | Post-Emergence Activity AVEFA (Avena fatua (AVEFA) [5]) | Post-Emergence Activity SETFA (Setaria faberi (SETFA) [6]) | Pre-Emergence Activity ECHCG [7] | Pre-Emergence Activity ALOMY [8] | Pre-Emergence Activity LOLPE (Lolium perenne (LOLPE) [9]) | Pre-Emergence Activity DIGSA [10] | Pre-Emergence Activity AVEFA (Avena fatua (AVEFA) [11]) | Pre-Emergence Activity SETFA (Setaria faberi (SETFA) [12])
CCc1ccc(-c2ccc(Cl)cc2Cl)cc1C1=C(Cl)C(C)(C)OC(C)(C)C1=O [Compound A1] | 100 | 40 | 60 | 100 | 50 | 60 | 0 | 10 | 20 | 70 | 0 | 0
CCc1ccc(-c2ccc(Cl)cc2Cl)cc1C1=C(SC)C(C)(C)OC(C)(C)C1=O [Compound A2] | 20 | 0 | 0 | 0 | 0 | 10 | 20 | 0 | 20 | 20 | 0 | 10
